From ChEMBL document CHEMBL1201862, “PubChem BioAssay data set” (2004)
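Where inhibition never reached the appropriate level, the endpoint shown equals the highest concentration tested. Otherwise, values were interpolated linearly from a five-concentration, 48-hour dose response in 96-well plates. GI50 marks 50% less growth.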 Calls of active or inactive are those of the source. Cut-off read from the data, not from the text of the source: active = GI50 up to about 1.1 µM and inactive = higher.

Tests used:
Assay in all cases: DTP human tumour cell line panel, 48 h
NCI-H226 = system: NCI-H226
OVCAR-8 = system: OVCAR-8
UACC-62 = system: UACC-62
SK-MEL-28 = system: SK-MEL-28
CAKI-1 = system: CAKI-1
HCC 2998 = system: HCC 2998
COLO 205 = system: COLO 205
SN12C = system: SN12C
RPMI-8226 = system: RPMI-8226
HL-60 = system: HL-60
MOLT-4 = system: MOLT-4
NCI-H460 = system: NCI-H460
SF-268 = system: SF-268
IGROV-1 = system: IGROV-1
SF-295 = system: SF-295
EKVX = system: EKVX
HCT-15 = system: HCT-15
SK-MEL-5 = system: SK-MEL-5
UO-31 = system: UO-31
NCI-H522 = system: NCI-H522

| SMILES | GI50 (NCI-H226) | GI50 (OVCAR-8) | GI50 (UACC-62) | GI50 (SK-MEL-28) | GI50 (CAKI-1) | GI50 (HCC 2998) | GI50 (COLO 205) | GI50 (SN12C) | GI50 (RPMI-8226) | GI50 (HL-60) | GI50 (MOLT-4) | GI50 (NCI-H460) | GI50 (SF-268) | GI50 (IGROV-1) | GI50 (SF-295) | GI50 (EKVX) | GI50 (HCT-15) | GI50 (SK-MEL-5) | GI50 (UO-31) | GI50 (NCI-H522) |
| --- | --- | --- | --- | --- | --- | --- | --- | --- | --- | --- | --- | --- | --- | --- | --- | --- | --- | --- | --- | --- |
| NS(=O)(=O)c1ccc(NC2(C(=O)O)CCCC2)cc1 | > 100 µM (inactive) | > 100 µM (inactive) | > 100 µM (inactive) | > 100 µM (inactive) | > 100 µM (inactive) | > 100 µM (inactive) | > 100 µM (inactive) | > 100 µM (inactive) | > 100 µM (inactive) | > 100 µM (inactive) | > 100 µM (inactive) | > 100 µM (inactive) | > 100 µM (inactive) | > 100 µM (inactive) | > 100 µM (inactive) | > 100 µM (inactive) | > 100 µM | > 100 µM (inactive) | > 100 µM (inactive) | > 100 µM (inactive) |
| C=C1C(=O)O[C@H]2C1[C@H](OC(=O)/C(C)=C\COC(C)=O)C[C@]1(CO1)[C@@H]1[C@H](O)[C@H]3O[C@@]3(C)[C@@H]12 (stereo not given in full) | 26.8 µM (inactive) | 24.8 µM (inactive) | 15.8 µM (inactive) | 15.5 µM (inactive) | 14.3 µM (inactive) | 15 µM (inactive) | 8.73 µM (inactive) | 22.3 µM (inactive) | 13.3 µM (inactive) | 13.9 µM (inactive) | 19.5 µM (inactive) | 33.4 µM (inactive) | 21.1 µM (inactive) | 24 µM (inactive) | > 61 µM (inactive) | 26.3 µM (inactive) | 18.5 µM | 18.6 µM (inactive) | > 88.7 µM (inactive) | 8.87 µM (inactive) |
| O=C(Nc1ccc(C(F)(F)F)cc1[N+](=O)[O-])C(=O)Nn1c(S)nc2ccccc2c1=O | > 100 µM (inactive) | > 100 µM (inactive) | > 100 µM (inactive) | > 100 µM (inactive) | > 100 µM (inactive) | > 100 µM (inactive) | > 100 µM (inactive) | > 100 µM (inactive) | > 100 µM (inactive) | > 100 µM (inactive) | > 100 µM (inactive) | > 100 µM (inactive) | > 100 µM (inactive) | > 100 µM (inactive) | > 100 µM (inactive) | 33.3 µM (inactive) | > 100 µM | > 100 µM (inactive) | > 100 µM (inactive) | > 100 µM (inactive) |
| C=C1C(=O)OC2/C=C(\C)CC(O)/C=C(/CO)CC(OC(=O)/C(C)=C/C)C12 (stereo not given) | 30 µM (inactive) | 24 µM (inactive) | 37.8 µM (inactive) | 14.8 µM (inactive) | 34.8 µM (inactive) | 42.7 µM (inactive) | 19.3 µM (inactive) | 131 µM (inactive) | 7.1 µM (inactive) | 13.3 µM (inactive) | 18.2 µM (inactive) | 36 µM (inactive) | 46.8 µM (inactive) | 37.8 µM (inactive) | 163 µM (inactive) | 23 µM (inactive) | 38.4 µM | 14.8 µM (inactive) | 173 µM (inactive) | 13 µM (inactive) |
| O=C1Nc2c(Cl)cccc2/C1=N/Nc1ccccc1[N+](=O)[O-] | 36.1 µM (inactive) | 12.4 µM (inactive) | 17.5 µM (inactive) | 35.1 µM (inactive) | 11.7 µM (inactive) | 32.7 µM (inactive) | 81.3 µM (inactive) | 28.9 µM (inactive) | 25 µM (inactive) | 70.1 µM (inactive) | 31.3 µM (inactive) | 17.3 µM (inactive) | 11.4 µM (inactive) | 1.9 µM (inactive) | 9.02 µM (inactive) | 3.51 µM (inactive) | 29.9 µM | 12.2 µM (inactive) | 22.1 µM (inactive) | 4.45 µM (inactive) |
| COc1cc(/C=C2\C[C@H]3[C@@H]4CC=C5C[C@@H](O)CC[C@]5(C)[C@H]4CC[C@]3(C)[C@H]2O)cc(OC)c1OC | 11 µM (inactive) | 19 µM (inactive) | 10.3 µM (inactive) | 25.2 µM (inactive) | 20.2 µM (inactive) | 17.3 µM (inactive) | 7.31 µM (inactive) | 38.3 µM (inactive) | 4.92 µM (inactive) | 4.91 µM (inactive) | 5.5 µM (inactive) | 12 µM (inactive) | 54.8 µM (inactive) | 27.8 µM (inactive) | 4.84 µM (inactive) | 34 µM (inactive) | 7.05 µM | 6.28 µM (inactive) | 13 µM (inactive) | 19.1 µM (inactive) |
| CCN1CCC(O)(c2ccc([N+](=O)[O-])cc2)C(C(=O)c2ccc([N+](=O)[O-])cc2)C1 (stereo not given) | 26.3 µM (inactive) | 30.1 µM (inactive) | 18.2 µM (inactive) | 16.6 µM (inactive) | 22.3 µM (inactive) | 17.7 µM (inactive) | 13.8 µM (inactive) | 21.1 µM (inactive) | 3.33 µM (inactive) | 41.5 µM (inactive) | 19.3 µM (inactive) | 28.8 µM (inactive) | 21 µM (inactive) | 18.2 µM (inactive) | > 100 µM (inactive) | 18.9 µM (inactive) | 21.3 µM | 18.1 µM (inactive) | 17.3 µM (inactive) | 3.33 µM (inactive) |
